This passage reports IC50 results from patent US5948780A, “Method for treating and preventing heart failure and ventricular dilatation” (priority 1997, dated 1999).

As usually defined, the IC50 is the concentration that gives 50% inhibition.

For the first experiment, the target named is MMP-3 (stromelysin) (Homo sapiens, UniProt P08254). Description: biochemical. It is filed as biochemical. To be noted: read-out: IC50 MMP3.
Chain of MMP-3 (stromelysin) (P08254 100-477): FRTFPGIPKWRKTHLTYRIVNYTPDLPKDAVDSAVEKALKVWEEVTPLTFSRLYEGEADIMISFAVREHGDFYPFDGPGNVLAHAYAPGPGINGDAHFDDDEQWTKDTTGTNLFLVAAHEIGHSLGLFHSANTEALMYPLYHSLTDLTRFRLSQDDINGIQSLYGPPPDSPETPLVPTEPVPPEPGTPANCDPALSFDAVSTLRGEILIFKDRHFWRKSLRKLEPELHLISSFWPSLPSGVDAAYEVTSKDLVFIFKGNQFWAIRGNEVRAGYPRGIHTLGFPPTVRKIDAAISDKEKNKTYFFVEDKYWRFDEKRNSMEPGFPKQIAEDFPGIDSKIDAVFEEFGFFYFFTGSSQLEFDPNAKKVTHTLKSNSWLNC
Description: (§1) The assays measure the amount by which a test compound reduces the hydrolysis of a thiopeptolide substrate caused by a matrix metalloproteinase enzyme.
(§2) Thiopeptolide substrates show virtually no decomposition or hydrolysis in the absence of a matrix metalloproteinase enzyme. A typical thiopeptolide substrate commonly utilized for assays is Ac-Pro-Leu-Gly-thioester-Leu-Leu-Gly-O Et. […] Assays are carried out with and without matrix metalloproteinase inhibitor compounds, and the amount of hydrolysis is compared for a determination of inhibitory activity of the test compounds.
Regarding `O=C(O)CCC(O)c1ccc(-c2ccc(Cl)cc2)cc1` (racemic) [(±)-4-(4'-Chloro-biphenyl-4-yl)-4-hydroxy-butyric acid], the half-maximal inhibitory concentration (IC50) came out at 280 nM.
As to `O=C(O)CCC(=NO)c1ccc(-c2ccc(Br)cc2)cc1` [4-(4'-Bromo-biphenyl-4-yl)-4-hydroxyimino-butyric acid], the IC50 was found to be 110 nM.
For `CN(C)N=C(CCC(=O)O)c1ccc(-c2ccc(Cl)cc2)cc1` [4-(4'-Chloro-biphenyl-4-yl)-4-(dimethylhydrazono)-butyric acid], the IC50 turned out to be 930 nM.
As for `O=C(O)CCC(=NO)c1ccc(-c2ccc(Cl)cc2)cc1` [4-(4'-Chloro-biphenyl-4-yl)-4-hydroxyimino-butyric acid], the IC50 came to 120 nM.
Turning to `O=C(Cc1ccccc1)N[C@@H](CC(=O)c1ccc2oc3ccccc3c2c1)C(=O)O` [(S)-4-Dibenzofuran-2-yl-4-oxo-2-phenylacetylamino-butyric acid], the 50% inhibitory concentration (IC50) is 330 nM.
Still for that read-out and setting: the value for `CC(C)CC(CC(=O)NO)C(=O)N[C@@H](CC(C)C)C(=O)N[C@@H](Cc1ccccc1)C(N)=O` (stereo partly shown) [Compound U24522, reference compound] was 20 nM.

The target in the next experiment is T1, MMP-2 (Gelatinase A) (Homo sapiens, UniProt P08253).
T1 sequence (P08253 110-660): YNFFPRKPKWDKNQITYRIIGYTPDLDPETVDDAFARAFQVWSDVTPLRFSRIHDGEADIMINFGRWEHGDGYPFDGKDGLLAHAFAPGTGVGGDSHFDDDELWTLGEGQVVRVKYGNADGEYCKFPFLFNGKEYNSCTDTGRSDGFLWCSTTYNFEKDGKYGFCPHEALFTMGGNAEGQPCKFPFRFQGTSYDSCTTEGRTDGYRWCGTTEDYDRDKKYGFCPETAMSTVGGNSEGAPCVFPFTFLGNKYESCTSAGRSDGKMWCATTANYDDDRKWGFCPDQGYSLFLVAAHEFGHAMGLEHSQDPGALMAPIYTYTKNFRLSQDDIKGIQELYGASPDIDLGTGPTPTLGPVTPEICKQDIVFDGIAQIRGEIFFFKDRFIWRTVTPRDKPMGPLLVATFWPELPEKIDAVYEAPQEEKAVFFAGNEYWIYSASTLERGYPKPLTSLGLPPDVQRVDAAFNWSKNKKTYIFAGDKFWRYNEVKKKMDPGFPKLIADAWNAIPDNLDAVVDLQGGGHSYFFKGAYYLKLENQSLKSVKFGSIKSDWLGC
Description: biochemical. To be noted: read-out: IC50 MMP2.
Description: as §1, §2
With `O=C(Cc1ccccc1)N[C@@H](CC(=O)c1ccc2oc3ccccc3c2c1)C(=O)O` [(S)-4-Dibenzofuran-2-yl-4-oxo-2-phenylacetylamino-butyric acid], the IC50 is 84 nM.
